We go through four compounds from US11786597B2, “Ionic liquids for transdermal drug delivery” (priority 2013, dated 2023).

Series [1] in a line: Density (volumetric flask and balance). The series is classed as physicochemical. On the procedure:
(§1) Determinations of conductivity were made on an ION450 benchtop meter (Radiometer Analytical) with a 2-pole electrode designed for use in viscous liquids (Radiometer Analytical CDC241-9) and calibrated with KCl. Conductivity was measured three times per sample on stirred 3 mL volumes of neat IL at 25° C. Density was measured three times per IL using a 1 mL volumetric flask and an analytical balance.

A short description of series [2]: Conductivity of neat IL. In kind it is physicochemical. On the procedure: as §1
A short description of series [3]: Solubility in water (physical characterization).
In series [4] the test system is Normal human bronchial epithelial (NHBE) cells. Nature of the series: WST-1 proliferation assay, 24 h exposure to diluted ILs. The following applies: for IC50: Homo sapiens, NHBE. On the procedure: Normal human bronchial epithelial (NHBE) cells were purchased (Lonza, Walkersville, MD) and cultured using bronchial epithelial cell growth media (BEGM, Clonetics Bullet Kit, Lonza, Walkersville, MD) on 100 mm tissue culture treated Petri dishes (Santa Cruz Biotechnologies, Santa Cruz, CA) coated with 50 μg/mL type I rat tail collagen (BD Biosciences, Bedford, MA). Cells were stored in an incubator with a humidified atmosphere at 37° C. and 5% CO2. Cells were fed two times weekly and passaged via trypsinization. Experimentation was performed in triplicate on cells harvested from passages 3 to 7.
NHBE cells were plated in 96-well tissue culture plates at a concentration of 1.5×10^4 cells/well in a volume of 200 μL and allowed to acclimate overnight. On the day of experimentation, treatment plates were prepared using stock ionic liquid diluted in BEGM and then serially diluted 3-fold for a total of 7 concentrations. The 96-well plates containing cells were then aspirated and the treatments (150 μL/well) were carefully transferred from the prep plate to the cells. Cells were exposed to the ionic liquids for 24 hours. Two hours prior to the end of the exposure time, positive control cell wells were aspirated, and a solution of 1% Triton-100 (150 μL/well) was added.
To assess cellular proliferation, water-soluble tetrazolium (WST-1) reagent (Clontech, Mountain View, CA) was added directly to cells, at a 1:10 dilution of the remaining media volume (7.5 μL of WST-1 reagent was added per 75 μL remaining cell culture media). NHBE cells exposed to media only and 1% Triton in BEGM were included as controls. Ionic liquid controls at the highest concentrations tested were included in wells without cells to rule out ionic liquid/assay reagent interference.

Series [5] concerns porcine skin. Nature of the series: Skin transport of 3H-Mannitol in Franz diffusion cell. The following applies: for drug permeation into the SC: 24 hr, 37° C. In kind it is in vitro ADME. On the procedure: (§2) FIG. 1 is a schematic of the skin transport experiment set-up and analysis. Porcine skin was loaded into the Franz diffusion cell (FDC) with the stratum corneum (SC) facing up. Skin was incubated in contact with 3H-labeled drug dissolved in donor solution for 24 hrs, at 37° C., with stirring. After 24 hrs the donor solution was removed and skin thoroughly washed. The SC was separated from the epidermis by tape stripping. Ten tape strips were applied, each tape corresponding to 1 “layer” of SC. Ten tape strips were assumed to remove the entire SC. Epidermis was separated from dermis using a razor blade. Acceptor solution was collected, and drug transport into various tissue layers was quantified by scintillation counter.
3H-labeled Mannitol and Cefadroxil were obtained from American Radiolabeled Chemicals, Inc. and Moravek, respectively. FDCs were used to assess the transport enhancement of ionic liquids using a previously established protocol. Karande, et al., “Discovery of transdermal penetration enhancers by high-throughput screening”, Nat Biotechnol, 22(2): 192-7 (2004). Briefly, the acceptor chamber was filled with degassed PBS and a small stir bar added. Thawed porcine skin was clamped in place between the acceptor and donor chambers with the SC facing up. Care was taken to ensure no air bubbles resided in the acceptor chamber. Ionic liquids or PBS (control) were spiked with 3H-labeled drug (Mannitol and Cefadroxil) to a final concentration of 10 μCi/ml. 300 μL of donor solution was added to the donor chamber and incubated in contact with the SC for 24 hr, at 37° C., with stirring.
After 24 hr, the donor solution was removed, and the skin was thoroughly washed and dried.
SC was separated from epidermis by tape stripping. Ten tape strips were performed in an identical fashion, with each tape corresponding to 1 SC “layer”. Ten strips were assumed to remove the majority of the SC. Epidermis was separated from dermis with a razor blade, and the acceptor solution was collected from the acceptor chamber. Samples from each tissue layer and acceptor solution were dissolved in Soluble (Perkin Elmer, Waltham, MA) overnight and the concentration of radiolabeled solute was measured using a scintillation counter (Packard Tri-Carb 2100 TR, Meriden, CT).

Series [6] can be described thus: Determination of lipophilicity (octanol/water distribution by UV absorbance). In kind it is physicochemical. To be noted: for percent in octanol: after extraction with water. On the procedure: A 250 mL volume of n-octanol was shaken with 100 mL of ddH2O and left overnight. […]
The absorption of the octanol layer and water layers were measured and compared with the absorbance of the stock solutions. Measurements were repeated three times and the distribution coefficients were reported as the average. The percent of IL in octanol was calculated as the absorbance of the octanol layer after extraction divided by the absorbance of IL in octanol before extraction. The water/octanol distribution coefficient was calculated as the logarithm of the percent of IL in octanol divided by the percent of IL in water.

Series [7] is described as follows: Viscosity (Viscolab 3000 viscometer). In kind it is physicochemical. On the procedure: Viscosity was measured on 1 mL samples with a Viscolab 3000 viscometer (Cambridge Viscosity, Medford, MA). […] Low-temperature differential scanning calorimetry (DSC) was performed on a DSC882e instrument (Mettler-Toledo Inc., Columbus, Ohio) under N2 atmosphere over two complete scans of a temperature range of −60 to 120° C. with a ramp rate of 10° C. per minute and a sample size of 18-21 mg in an aluminum crucible.

The conditions of series [8]: Abbott et al. 2006; cited from earlier work.
Series [9] in a line: Calculations of molarity and ionic strength. To be noted: neat IL, Table 5. The series is classed as physicochemical.
Series [10] has as its system S. enterica (Salmonella) biofilm. The following applies: neat IL.
Series [11] relates to P. aeruginosa (Pseudomonas) biofilm. To be noted: neat IL.
Series [12] relates to porcine skin. The series can be described thus: Skin transport of 3H-Cefadroxil in Franz diffusion cell. The following applies: spiked with Cefadroxil. The series is classed as in vitro ADME. On the procedure: as §2
3H-labeled Mannitol and Cefadroxil were obtained from American Radiolabeled Chemicals, Inc. and Moravek, respectively. FDCs were used to assess the transport enhancement of ionic liquids using a previously established protocol. Karande, et al., “Discovery of transdermal penetration enhancers by high-throughput screening”, Nat Biotechnol, 22(2): 192-7 (2004). […]
SC was separated from epidermis by tape stripping. […] Samples from each tissue layer and acceptor solution were dissolved in Soluble (Perkin Elmer, Waltham, MA) overnight and the concentration of radiolabeled solute was measured using a scintillation counter (Packard Tri-Carb 2100 TR, Meriden, CT).

Read-outs that look alike come from different tables or passages of the source. Marks after values point to notes of the source that are not given here.

For `C[N+](C)(C)CCO.NC(N)=O.NC(N)=O.[Cl-]` [LANL-6, urea-choline], the density in series [1] (25° C.) and in series [1] (Table 5) was 1.21 g/mL each time. The values for the conductivity in series [2] (25° C.) and in series [2] (Table 5) were 0.580 mS/cm and 0.580^a mS/cm, respectively. For the same compound, the “solubility in water” value in series [3] (25° C.) is listed as “miscible”. The “toxicity to human primary cells” value in [4] (solubilized in culture medium) is on record as “low toxicity”. The “drug permeation into the SC” value in series [5] (3H-Mannitol) is “inhibited drug permeation into the SC”. Further, in series [6], the “partitioning into octanol” value was “partitioned poorly into octanol”. In [6] (Table 3), the percent in octanol is 24 +/− 8%. Besides, the “log Po/w” value in [6] (octanol/water, Table 3) is listed as −0.51. The figures for the viscosity in series [7] (25° C.), in series [7] (Table 5) and in series [7] (text b171) were 1390 cP, 1386^a cP and 1390 cP, respectively. For the same compound, the “viscosity at 40° C.” value in series [7] (40° C.) stood at 170 cP. Also, the “viscosity, literature value at 40° C.” value in series [8] is given as 169 cP. The ionic strength in series [9] was 2.32 M. In series [9], the molarity is given as 4.65 M.

Consider `CCCCCCn1cc[n+](C)c1.[Cl-]` [LANL-7, 1-Hexyl-3-Methylimidazolium Chloride], for which the density in [1] (25° C.) is on record as 1.005 g/mL; in [1] (Table 5) it was 1.01 g/mL. Also, the conductivity in series [2] (25° C.) and in [2] (Table 5) was 0.340 mS/cm throughout. For the same compound, the solubility in series [3] (water, 25 °C) came to 700 mM. The concentration for half-maximal inhibition (IC50) in [4] was determined as 10 mM; in series [4] (24 h, read-out: IC50 at 24 h) it was 10 mM. The “toxicity to human primary cells” value in series [4] (solubilized in culture medium) is “low toxicity”. The percent in octanol in series [6] (Table 3) is listed as 52 +/− 9%. The logP in series [6] (n-octanol/water, octanol/water, Table 3) came out at 0.04. The values for the viscosity in series [7] (25° C.) and in series [7] (Table 5) were 680 cP and 679.5 cP, respectively. In addition, in [9], the ionic strength is given as 4.96 M. In [9], the molarity is given as 4.96 M. For the same compound, the “anti-biofilm efficacy” value in series [10] and in series [11] was “effective” in each case.

For the compound choline geranate [LANL-21], the density in series [1] (25° C.) and in series [1] (Table 5) was 0.990 g/mL each time. Besides, the values for the conductivity in series [2] (25° C.), in series [2] (Table 5) and in series [2] (text b172) were 0.0431 mS/cm, 0.0431 mS/cm and 0.04 mS/cm, respectively. In series [5] (3H-Mannitol), the “loss/partitioning of solute to the acceptor solution” value is on record as “enhanced partitioning into the acceptor solution”. For the same compound, in series [5] (3H-Mannitol, relative to PBS control), the “transport enhancement into/through all layers of the skin” value was 5-15 fold. In addition, in series [5] (materials in lower right portion of Walden plot), the “skin transport properties” value is on record as “best skin transport properties”. In addition, the “log Po/w” value in series [6] is recorded as 0.28. In addition, the percent in octanol in series [6] (Table 3) is on record as 66 +/− 3%. Also, the viscosity in [7] (25° C.) and in [7] (Table 5) was 1345 cP throughout. For the same compound, the “partitioning into the dermis and acceptor solution versus control (PBS)” value in [12] is 15-20 times. Also, in [9], the ionic strength is 3.39 M. Further, in [9], the molarity is 2.26 M.

Take choline hexanoate [LANL-13]: the density in series [1] (25° C.) and in [1] (Table 5) was 1.01 g/mL each time. The conductivity in series [2] (25° C.), in series [2] (Table 5) and in series [2] (text b172) was 0.816 mS/cm each time. The “toxicity to human primary cells” value in series [4] was “low toxicity”. Besides, in series [5] (3H-Mannitol), the “drug permeation into the SC” value is on record as “inhibited drug permeation into the SC”. Moreover, the percent in octanol in series [6] (Table 3) is reported as 51 +/− 2%. The results for the viscosity in [7] (25° C.) and in [7] (Table 5) were 181 cP and 180.9 cP, respectively. The ionic strength in series [9] is given as 3.02 M. Besides, in [9], the molarity is on record as 3.02 M. Moreover, the “anti-biofilm efficacy” value in series [10] and in [11] was “effective” each time.
